Measured values reported in patent US8420852B2, “Phospholipase A2 inhibitors and their use in treating neurological injury and disease” (The Regents of the University of California, priority 2007, dated 2013).

Biological target: T1, human cPLA2 (GIVA) (Homo sapiens, UniProt P47712)
T1 sequence (P47712 1-749): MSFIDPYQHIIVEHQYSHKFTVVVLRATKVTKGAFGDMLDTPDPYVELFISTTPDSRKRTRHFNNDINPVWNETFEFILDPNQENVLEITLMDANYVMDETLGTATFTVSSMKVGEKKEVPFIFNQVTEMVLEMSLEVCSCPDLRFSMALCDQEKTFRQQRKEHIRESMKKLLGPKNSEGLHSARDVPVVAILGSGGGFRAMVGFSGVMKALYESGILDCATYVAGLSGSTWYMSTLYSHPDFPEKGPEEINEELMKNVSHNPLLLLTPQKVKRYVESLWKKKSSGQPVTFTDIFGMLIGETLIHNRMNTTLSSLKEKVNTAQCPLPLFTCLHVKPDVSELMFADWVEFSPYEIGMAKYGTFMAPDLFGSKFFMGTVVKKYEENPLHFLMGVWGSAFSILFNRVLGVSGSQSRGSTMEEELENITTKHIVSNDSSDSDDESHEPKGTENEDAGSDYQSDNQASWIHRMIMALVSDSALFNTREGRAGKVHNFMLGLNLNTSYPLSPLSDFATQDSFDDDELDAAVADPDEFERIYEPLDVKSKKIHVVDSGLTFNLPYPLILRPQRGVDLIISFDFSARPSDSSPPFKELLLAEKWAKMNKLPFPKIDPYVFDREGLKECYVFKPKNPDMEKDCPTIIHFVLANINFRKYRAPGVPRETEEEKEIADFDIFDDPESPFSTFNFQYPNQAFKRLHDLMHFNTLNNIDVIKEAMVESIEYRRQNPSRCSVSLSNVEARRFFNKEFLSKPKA
Test: cPLA2 (GIVA) specific mixed micelle assay
Type: biochemical
Details: at 0.091 mol fraction
Protocol: The compounds described herein were tested for inhibition of PLA2s in in vitro assay systems. The data, summarized in the Examples, are represented as XI(50) values unless otherwise noted. XI(50) is defined as the inhibitor concentration that produced 50% inhibition. XI(50) is used as opposed to the more common IC50 because GIVA and GVIA PLA2 are active at a two-dimensional lipid interface rather than in three-dimensional solution. (Deems, Anal. Biochem., 287:1-16, 2000).
For the groups that received delayed treatment after symptoms occurred, mice were treated with daily intraperitoneal injections of AX059 starting from the first day of clinical symptoms, beginning on day 11; and AX115 starting from the first day of clinical peak (i.e., score 4), beginning of day 14. All inhibitors were administered for 2 weeks. The selectivity of the compounds for the different PLA2s is shown as the percentage inhibition in Table 1. The XI(50) is the mole fraction of the inhibitor in the total substrate interface required to inhibit the enzyme by 50%.
Compound AX115 was tested for its ability to inhibit human cPLA2 (GIVA) in a cPLA2 (GIVA) specific assay that uses mixed micelles of the substrate 1-palmitoyl-2-arachidonyl phosphatidylcholine and the detergent Triton X-100 (97:3) containing phosphatidylinositol 4,5-bisphosphate (400 μM) as previously described. […]

CCCCCCCCCCCCCCC(=O)C(=O)NCC(=O)OC [AX115]
Inhibition cPLA2 GIVA: 62%
